12 compounds from PubChem BioAssay (NCI) can be followed below.

Values joined by “and” are separate entries in the source; they are usually repeats but may differ in a detail not shown here. Equal values may be shown once.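 96-well plates; 48 h exposure; 5 concentrations. Endpoints by linear interpolation between flanking doses. Not reached: highest tested concentration assigned. Abbreviation: GI50, concentration required for 50% inhibition of growth. At the TGI there is no net growth.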 Where only a bound is given, the exact number is not on record here.

Test systems include SK-MEL-28 melanoma; OVCAR-3 ovarian; SK-OV-3 ovarian; EKVX NSCLC; SF-295 CNS; A498 renal; M14 melanoma; IGROV1 ovarian; SK-MEL-5 melanoma; TK-10 renal.
Experiment in all cases: inhibition of tumour cell growth, NCI panel, 48 h

For the compound `C[C@@]1(C(=O)O)CCC[C@]2(C)C1CC[C@@]13CC(=O)[C@@](CO)(CC[C@]12O)C3` (stereo partly drawn), the GI50 was above 100 µM in the assay with SK-MEL-28 melanoma; above 100 µM in the assay with OVCAR-3 ovarian; 21.3 µM in the assay with SK-OV-3 ovarian; above 100 µM in the assay with EKVX NSCLC; above 100 µM in the assay on SF-295 CNS; 19.7 µM in the assay on A498 renal. For the same compound, the GI50 in the assay with M14 melanoma, with IGROV1 ovarian, in the assay on SK-MEL-5 melanoma and in the assay with TK-10 renal was above 100 µM throughout. Also, the TGI in the assay on SK-MEL-28 melanoma, in the assay on OVCAR-3 ovarian, with SK-OV-3 ovarian, in the assay on EKVX NSCLC, with SF-295 CNS and in the assay with A498 renal was above 100 µM throughout. The TGI with M14 melanoma, in the assay with IGROV1 ovarian, in the assay on SK-MEL-5 melanoma and with TK-10 renal was above 100 µM each time.
`CCOC(=O)Nc1ccc2c(c1)/C(=N\NC(N)=S)c1ccccc1-2`: the GI50 is 4.58 µM in the assay with SK-MEL-28 melanoma; 4.38 µM in the assay with OVCAR-3 ovarian; 11.7 µM in the assay with SK-OV-3 ovarian; 4.29 µM in the assay on EKVX NSCLC; 2.37 µM with SF-295 CNS; 2.39 µM in the assay with A498 renal. The GI50 in the assay on M14 melanoma is 4.69 µM; in the assay with IGROV1 ovarian, 5.88 µM; with SK-MEL-5 melanoma, 2.44 µM; with TK-10 renal, 15.2 µM. The TGI in the assay on SK-MEL-28 melanoma came to 17.7 µM; in the assay on OVCAR-3 ovarian, 27.8 µM; in the assay with SK-OV-3 ovarian it was 44.8 µM; with EKVX NSCLC, 41.2 µM; in the assay on SF-295 CNS it was 7.59 µM; with A498 renal it was 8.18 µM. Also, the TGI in the assay on M14 melanoma is 23.1 µM; with IGROV1 ovarian it was 28.1 µM; in the assay with SK-MEL-5 melanoma it was 7.59 µM; in the assay on TK-10 renal it was above 68.5 µM.
`O=C(COc1ccc(Cl)cc1)N1N=C(c2ccc(Cl)cc2)CC1(O)c1ccccc1` (stereo not drawn): the TGI was 35.3 µM in the assay with SK-MEL-28 melanoma; 39.2 µM in the assay with OVCAR-3 ovarian; above 63.6 µM in the assay with SK-OV-3 ovarian; 91.4 µM in the assay with EKVX NSCLC; 82 µM in the assay with SF-295 CNS; 26.5 µM in the assay on A498 renal. Besides, the TGI with M14 melanoma was 34.5 µM; with IGROV1 ovarian, 61.6 µM; in the assay on SK-MEL-5 melanoma, 29.3 µM; in the assay with TK-10 renal it was above 78 µM.
In the case of `CCCCON(OC(=O)c1ccc2ccccc2c1)C(=O)c1ccccc1`, the GI50 with SK-MEL-28 melanoma, in the assay on OVCAR-3 ovarian, with SK-OV-3 ovarian, in the assay on EKVX NSCLC, with SF-295 CNS and in the assay with A498 renal was above 100 µM each time. Moreover, the GI50 with M14 melanoma is above 100 µM; with IGROV1 ovarian, 44.1 µM; in the assay with SK-MEL-5 melanoma it was above 100 µM; in the assay on TK-10 renal it was above 100 µM. Moreover, the TGI in the assay with SK-MEL-28 melanoma, in the assay on OVCAR-3 ovarian, in the assay on SK-OV-3 ovarian, with EKVX NSCLC, with SF-295 CNS and in the assay on A498 renal was above 100 µM throughout. Also, the TGI in the assay with M14 melanoma, with IGROV1 ovarian, with SK-MEL-5 melanoma and with TK-10 renal was above 100 µM each time.
With `O=C(O)CCN(CCCCN(CCC(=O)O)CCC(=O)O)CCC(=O)O`, the TGI in the assay with SK-MEL-28 melanoma, with OVCAR-3 ovarian, with SK-OV-3 ovarian, with EKVX NSCLC, in the assay on SF-295 CNS and in the assay on A498 renal was above 100 µM each time. Also, the TGI in the assay on M14 melanoma, with IGROV1 ovarian, with SK-MEL-5 melanoma and in the assay with TK-10 renal was above 100 µM in each case.
Take `Cc1c[n+](=O)c2ccccc2n1[O-]`: the TGI in the assay on SK-MEL-28 melanoma, in the assay on OVCAR-3 ovarian, in the assay with SK-OV-3 ovarian, with EKVX NSCLC, in the assay on SF-295 CNS and in the assay with A498 renal was above 100 µM in each case. For the same compound, the TGI with M14 melanoma, in the assay with IGROV1 ovarian, with SK-MEL-5 melanoma and in the assay on TK-10 renal was above 100 µM in each case.
As for `C[C@]12CC[C@@H]3c4ccc(OC(=O)N(CCCl)CCCl)cc4CC[C@H]3[C@@H]1CC[C@@H]2O`, the GI50 with SK-MEL-28 melanoma was 3.75 µM; in the assay with OVCAR-3 ovarian, 0.691 µM; in the assay on SK-OV-3 ovarian it was 4.71 µM; in the assay with EKVX NSCLC, 3.26 µM; in the assay with SF-295 CNS, 0.819 µM; in the assay with A498 renal, 1.6 µM. For the same compound, the GI50 with M14 melanoma was 1.61 µM; in the assay on IGROV1 ovarian it was 4.7 µM; in the assay on SK-MEL-5 melanoma it was 1.95 µM; in the assay on TK-10 renal, 3.04 µM. In addition, the TGI in the assay with OVCAR-3 ovarian was 4.56 µM; with SK-OV-3 ovarian, 36.8 µM and 7.95 µM; in the assay on SF-295 CNS, 4.14 µM; in the assay with A498 renal, 9 µM; with M14 melanoma it was 11.5 µM; with IGROV1 ovarian, 33.4 µM and 3.65 µM. In addition, the results for the TGI in the assay with SK-MEL-5 melanoma and in the assay with TK-10 renal were 9.27 µM and 9.98 µM, respectively.
With `COc1ncnc2c(-c3ccccc3)cn(COCc3ccccc3)c12`, the GI50 with SK-MEL-28 melanoma is 3.33 µM; with OVCAR-3 ovarian, 5.09 µM; in the assay with SK-OV-3 ovarian, 7.69 µM; with EKVX NSCLC, 2.37 µM; in the assay with SF-295 CNS, 2.82 µM; in the assay with A498 renal it was 1.96 µM. Further, the GI50 was 2.66 µM in the assay on M14 melanoma, 7.16 µM in the assay with IGROV1 ovarian, 1.13 µM in the assay with SK-MEL-5 melanoma and 4.05 µM in the assay on TK-10 renal. The TGI is 48.9 µM in the assay with SK-MEL-28 melanoma; 20.1 µM in the assay on OVCAR-3 ovarian; above 100 µM with SK-OV-3 ovarian; above 100 µM in the assay with EKVX NSCLC; 15.4 µM in the assay on SF-295 CNS; 10.1 µM with A498 renal. The TGI was 7.07 µM with M14 melanoma, above 100 µM in the assay on IGROV1 ovarian, 2.34 µM with SK-MEL-5 melanoma and above 100 µM with TK-10 renal.
For the compound `COC(=O)c1ccc(-c2nc3cc(Cl)c(Cl)cc3nc2C#N)cc1`, the GI50 with SK-MEL-28 melanoma, with OVCAR-3 ovarian, in the assay on SK-OV-3 ovarian, in the assay with EKVX NSCLC, with SF-295 CNS and in the assay on A498 renal was above 100 µM in each case. The GI50 with M14 melanoma, in the assay on IGROV1 ovarian, with SK-MEL-5 melanoma and in the assay on TK-10 renal was above 100 µM each time. The TGI in the assay with SK-MEL-28 melanoma, in the assay on OVCAR-3 ovarian, with SK-OV-3 ovarian, with EKVX NSCLC, in the assay with SF-295 CNS and in the assay on A498 renal was above 100 µM throughout. In addition, the TGI with M14 melanoma, with IGROV1 ovarian, in the assay on SK-MEL-5 melanoma and in the assay with TK-10 renal was above 100 µM each time.
Turning to `Oc1c(-c2nnc(-c3ccccc3Cl)o2)sc2nnc(-c3ccccc3)c(-c3ccccc3)c12`, the GI50 in the assay with SK-MEL-28 melanoma was 16.4 µM; with OVCAR-3 ovarian it was 2.64 µM; with SK-OV-3 ovarian, 5.14 µM; in the assay on EKVX NSCLC, 3.1 µM; in the assay on SF-295 CNS it was 1.89 µM; with A498 renal, 7.35 µM. Besides, the GI50 in the assay with M14 melanoma was 5 µM; in the assay with IGROV1 ovarian it was 2.47 µM; in the assay with SK-MEL-5 melanoma, 5.99 µM; in the assay with TK-10 renal, 5.39 µM. In addition, the TGI in the assay on SK-MEL-28 melanoma was above 100 µM; in the assay with OVCAR-3 ovarian, 8 µM; in the assay on SK-OV-3 ovarian it was above 100 µM; in the assay with EKVX NSCLC, 32.2 µM; in the assay on SF-295 CNS, 15.6 µM; in the assay on A498 renal, 41.7 µM. In addition, the TGI was 39.3 µM in the assay with M14 melanoma, 8.78 µM in the assay with IGROV1 ovarian, 19.8 µM with SK-MEL-5 melanoma and 83.7 µM in the assay on TK-10 renal.
On to `O=c1[nH]c(=O)c2cn[nH]c2[nH]1`, for which the GI50 in the assay with SK-MEL-28 melanoma, in the assay with OVCAR-3 ovarian, with SK-OV-3 ovarian, with EKVX NSCLC, in the assay with SF-295 CNS and with A498 renal was above 100 µM in each case. Moreover, the GI50 in the assay with M14 melanoma, in the assay on IGROV1 ovarian, with SK-MEL-5 melanoma and with TK-10 renal was above 100 µM throughout. The TGI in the assay on SK-MEL-28 melanoma, in the assay on OVCAR-3 ovarian, in the assay with SK-OV-3 ovarian, in the assay on EKVX NSCLC, in the assay on SF-295 CNS and in the assay on A498 renal was above 100 µM throughout. In addition, the TGI in the assay with M14 melanoma, with IGROV1 ovarian, with SK-MEL-5 melanoma and in the assay with TK-10 renal was above 100 µM throughout.
In the case of `CCCCCCCCNc1cc2c3c(c1)CCCN3CCC2`, the GI50 in the assay with SK-MEL-28 melanoma is 3.87 µM; in the assay with OVCAR-3 ovarian it was 1.55 µM; with SK-OV-3 ovarian, 2.36 µM; with EKVX NSCLC, 0.559 µM; in the assay on SF-295 CNS, 2.31 µM; in the assay on A498 renal, 4.2 µM. The GI50 with M14 melanoma was 2.5 µM; with IGROV1 ovarian, 1.77 µM; in the assay on SK-MEL-5 melanoma, 1.49 µM; in the assay with TK-10 renal it was 5.69 µM. The TGI in the assay with SK-MEL-28 melanoma is 17.8 µM; in the assay on OVCAR-3 ovarian, 5.81 µM; in the assay with SK-OV-3 ovarian, 7.96 µM; in the assay on EKVX NSCLC, 15.3 µM; in the assay on SF-295 CNS, 10.8 µM; in the assay with A498 renal, 18.7 µM. For the same compound, the TGI stood at 13.6 µM in the assay with M14 melanoma, 8.3 µM in the assay on IGROV1 ovarian, 3.14 µM in the assay with SK-MEL-5 melanoma and 22 µM in the assay on TK-10 renal.
